Residue numbers refer to the chain shown, from its start.
Legend:
[1] = biological target: T1, 6His-Oaz1 (antizyme, OAZ) (Saccharomyces cerevisiae, UniProt Q02803); assay: competition with [3H]-spermidine; assay type: binding; settings: 10 µM [3H]-spermidine; competitive
T1 construct: full-length, in-frame OAZ1 (no ribosomal frameshift needed), 6His tag, from E. coli Rosetta (plasmid pDG240)
T1 sequence (Q02803 1-292): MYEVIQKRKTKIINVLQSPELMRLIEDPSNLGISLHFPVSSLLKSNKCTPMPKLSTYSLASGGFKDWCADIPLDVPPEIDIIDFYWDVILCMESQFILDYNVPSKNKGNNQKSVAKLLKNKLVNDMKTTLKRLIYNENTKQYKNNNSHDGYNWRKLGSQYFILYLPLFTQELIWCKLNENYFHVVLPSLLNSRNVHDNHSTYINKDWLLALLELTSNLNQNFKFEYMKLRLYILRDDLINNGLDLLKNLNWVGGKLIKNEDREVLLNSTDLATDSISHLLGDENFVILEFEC

[2] = biological target: T1, 6His-Oaz1 (antizyme, OAZ); assay: [3H]-spermidine retention by 6His-tagged protein; assay type: binding; settings: labelled compound
[3] = biological target: T2, 6His-Oaz1 (antizyme, OAZ) (Saccharomyces cerevisiae, UniProt Q02803, L245A/L246A/K247A/W251A); assay: [3H]-spermidine retention by 6His-tagged protein; assay type: binding; settings: labelled compound
T2 construct: full-length, in-frame OAZ1 (no ribosomal frameshift needed), 6His tag, from E. coli Rosetta (plasmid pDG240)
T2 sequence (Q02803 1-292 L245A/L246A/K247A/W251A): T1 sequence (Q02803 1-292) with L245A, L246A, K247A, W251A

26S proteasome = biological target: T3, 26S proteasome (Saccharomyces cerevisiae, UniProt P23724+P30656); assay: Suc-LLVY-AMC hydrolysis; assay type: biochemical; settings: 1 mM ATP; 1 mM DTT; 5 mM MgCl2; pH 7.8; weak effect, site unknown
T3 construct: gene PRE2; anti-Flag beads; singly and doubly capped, some free 20S; with Proteasome subunit beta type-4; Proteasome subunit beta type-1; Proteasome subunit beta type-2; Proteasome subunit beta type-3; Proteasome subunit beta type-7; Proteasome subunit alpha type-1; Proteasome subunit alpha type-2; Proteasome subunit alpha type-3; Proteasome subunit alpha type-4; Proteasome subunit alpha type-5; Proteasome subunit alpha type-6; Proteasome subunit alpha type-7

## CC(=O)NCCCNCCCCN [N1-acetylspermidine]
[1]
  competition with [3H]-spermidine: mono-acetylspermidine derivatives: "mono-acetylated spermidine derivatives showed a clearly reduced binding to antizyme"

## CC(=O)NCCCCNCCCN [N8-acetylspermidine]
[1]
  competition with [3H]-spermidine: mono-acetylated spermidine derivatives showed a clearly reduced binding to antizyme

## NCCCCNCCCN [spd, spermidine]
[2]
  [3H]-spermidine retention by 6His-tagged protein: retention of [^3H]-spermidine by 6His-Oaz1 or 6His-Oaz1-4res
[3]
  [3H]-spermidine retention by 6His-tagged protein: Oaz1-4res bound [^3H]-spermidine with a similar efficiency as its wild-type counterpart

## NCCCNCCCCNCCCN [spm, spermine]
26S proteasome
  activity versus spermine concentration: A small reduction in proteasome activity was observed with polyamine addition

From publication PMC5349141, “Polyamines directly promote antizyme-mediated degradation of ornithine decarboxylase by the proteasome” (Microbial Cell, 2015)
